Assay results taken from article PMC12680558, “Design, Synthesis, In Silico Absorption, Distribution, Metabolism, and Elimination and Molecular Docking Studies of Thiazole‐Based Furan Derivatives, and Their Biological Evaluation for Alzheimer Disease Therapy” (ChemistryOpen, 2025).
Several values for one entry are separate records, joined by “and”; a condition that tells them apart may be missing. Equal entries are not always repeated.

Columns and labels:
[1] = ABTS radical scavenging assay; conditions: 2 µg mL^−1
Method: (§1) The methods outlined by Blois and Re were used to assess the DPPH^ · and ABTS^+· free radical scavenging activities, respectively.^[ [58], [59] ^– [60] ^] A series of stock concentrations of synthesized thiazole‐based furan derivatives (2a‐2m) was prepared. For DPPH assay, a radical solution of 1 mM DPPH solution was prepared. Final concentrations were adjusted by diluting the sample stock solutions with ethanol to a total volume of 2 mL and then adding 0.5 mL of DPPH solution to each tube. The mixtures were incubated at room temperature and protected from light for 30 min. Absorbance was measured at 517 nm. In the ABTS test, 7 mM ABTS solution was prepared, and radical cations were formed by adding 2.45 mM persulfate. The absorbance of the control solution was adjusted to 0.700 ± 0.025 at 734 nm. For analysis, 0.5 mL of ABTS^+· radical solution was added to each sample. The absorbance at 734 nm was then measured against the blank solution following a 30 min incubation period.

[2] = DPPH radical scavenging assay; conditions: 2 µg mL^−1
Method: as §1

[3] = biological target: T1, AChE (Electrophorus electricus, UniProt O42275); assay: biochemical; conditions: for Ki: Lineweaver–Burk plots; for AChE/BChE SI (selectivity index): SI = KI (AChE)/KI (BChE); for IC50: substrate ATChI, 37 °C
T1 construct: AChE (from electric eels); from tissue
Method: Activity variations were tracked at 37 °C using acetylthiocholine iodide (ATChI) as a substrate for AChE (from electric eels) and butyrylcholine iodide (BChI) as a substrate for BChE (from horse serum).
Using at least five different inhibitor concentrations against the AChE and BChE enzymes, the inhibitory effects of thiazole‐based furan derivatives were assessed across a range of inhibitor doses. […] Furthermore, Lineweaver–Burk plots were used to assess inhibition types and inhibition constants (K I), providing thorough information on the kinetic behavior of these inhibitors.^[ [64] ^, [65] ^]

[4] = biological target: T2, BChE (Equus caballus, UniProt P81908); assay: biochemical; conditions: for Ki: Lineweaver–Burk plots; for IC50: substrate BChI, 37 °C
T2 construct: BChE (from horse serum); from tissue; host or cells: horse serum
T2 sequence (P81908 whole entry): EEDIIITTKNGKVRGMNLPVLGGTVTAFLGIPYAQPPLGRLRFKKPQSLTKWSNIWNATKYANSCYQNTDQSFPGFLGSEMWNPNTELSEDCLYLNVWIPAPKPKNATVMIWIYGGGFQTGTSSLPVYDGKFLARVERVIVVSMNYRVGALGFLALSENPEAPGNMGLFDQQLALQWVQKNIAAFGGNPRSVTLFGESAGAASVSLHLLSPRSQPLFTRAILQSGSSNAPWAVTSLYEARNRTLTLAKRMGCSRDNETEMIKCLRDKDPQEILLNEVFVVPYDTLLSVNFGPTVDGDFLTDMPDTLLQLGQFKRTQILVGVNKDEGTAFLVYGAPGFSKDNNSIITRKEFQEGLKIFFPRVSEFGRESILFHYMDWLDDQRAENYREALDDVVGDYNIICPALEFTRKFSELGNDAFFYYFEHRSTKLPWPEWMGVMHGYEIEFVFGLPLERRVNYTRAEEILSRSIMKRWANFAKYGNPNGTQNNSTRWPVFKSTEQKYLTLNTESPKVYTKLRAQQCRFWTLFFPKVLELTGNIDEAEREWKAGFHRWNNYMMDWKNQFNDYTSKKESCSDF

T1 sequence (O42275 24-633): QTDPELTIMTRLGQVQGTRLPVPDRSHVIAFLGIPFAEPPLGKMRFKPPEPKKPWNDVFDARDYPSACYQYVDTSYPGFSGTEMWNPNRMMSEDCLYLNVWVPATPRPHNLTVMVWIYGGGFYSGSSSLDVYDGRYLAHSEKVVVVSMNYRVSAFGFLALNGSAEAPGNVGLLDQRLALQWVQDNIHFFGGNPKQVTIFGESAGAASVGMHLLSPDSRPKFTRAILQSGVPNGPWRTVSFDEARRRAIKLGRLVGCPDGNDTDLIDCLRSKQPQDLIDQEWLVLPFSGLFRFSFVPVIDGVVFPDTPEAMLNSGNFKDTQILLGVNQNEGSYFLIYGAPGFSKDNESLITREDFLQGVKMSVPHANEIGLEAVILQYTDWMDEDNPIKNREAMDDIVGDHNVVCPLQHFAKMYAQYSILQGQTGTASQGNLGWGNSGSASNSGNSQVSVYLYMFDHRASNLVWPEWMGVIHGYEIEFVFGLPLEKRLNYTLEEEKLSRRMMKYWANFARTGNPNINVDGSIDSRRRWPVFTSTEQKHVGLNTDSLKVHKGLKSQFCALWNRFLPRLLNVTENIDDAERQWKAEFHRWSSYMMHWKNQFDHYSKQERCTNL

Row | Structure (SMILES) | ABTS percent radical scavenging [1] | DPPH percent radical scavenging [2] | Ki [3] [µM] | AChE/BChE SI (selectivity index) [3] | IC50 [3] [µM] | Ki [4] [µM] | IC50 [4] [µM]
1 | O=[N+]([O-])c1ccc(-c2csc(NN=Cc3ccc(CO)o3)n2)cc1 [2a, 4‐(4‐Nitrophenyl)‐2‐(2‐((5‐hydroxymethylfuran‐2‐yl)methylene)hydrazineyl)thiazole] | 56.842% and 56.842 ± 4.346% | 12.202% and 12.202 ± 0.965% | 14.9 ± 1.05 | 2.469 | 21.7 | 6.03 ± 0.523 | 8.77
2 | COc1ccc(-c2csc(NN=Cc3ccc(CO)o3)n2)cc1 [2b, 4‐(4‐Methoxyphenyl)‐2‐(2‐((5‐Hydroxymethylfuran‐2‐Yl)methylene)hydrazineyl)thiazole] | 2.105 ± 0.176% | 1.109 ± 0.762% | 14.5 ± 1.12 | 0.609 | 21.1 | 23.82 ± 0.132 | 34.7
3 | N#Cc1ccc(-c2csc(NN=Cc3ccc(CO)o3)n2)cc1 [2c, 4‐(4‐Cyanophenyl)‐2‐(2‐((5‐Hydroxymethylfuran‐2‐Yl)methylene)hydrazineyl)thiazole] | 15.789 ± 1.365% | 3.512 ± 0.237% | 31.8 ± 2.86 | 3.334 | 46.2 | 9.53 ± 0.824 | 13.9
4 | OCc1ccc(C=NNc2nc(-c3ccc(F)cc3)cs2)o1 [2d, 4‐(4‐Fluorophenyl)‐2‐(2‐((5‐Hydroxymethylfuran‐2‐Yl)methylene)hydrazineyl)thiazole] | 6.316 ± 0.584% | 1.848 ± 0.095% | 36.7 ± 3.22 | 4.925 | 53.3 | 7.44 ± 0.565 | 10.8
5 | OCc1ccc(C=NNc2nc(-c3ccc(-c4ccccc4)cc3)cs2)o1 [2e, 4‐([1,1^′‐Biphenyl]‐4‐Yl)‐2‐(2‐((5‐Hydroxymethylfuran‐2‐Yl)methylene)hydrazineyl) Thiazole] | 17.105 ± 1.248% | 4.621 ± 0.372% | 34 ± 2.1 | 5.287 | 49.5 | 6.44 ± 0.452 | 9.36
6 | OCc1ccc(C=NNc2nc(-c3ccc(Br)cc3)cs2)o1 [2f, 4‐(4‐Bromophenyl)‐2‐(2‐((5‐Hydroxymethylfuran‐2‐Yl)methylene)hydrazineyl)thiazole] | 22.107 ± 1.728% | 7.579 ± 0.648% | 26.5 ± 1.81 | 5.557 | 38.5 | 4.76 ± 0.321 | 6.93
7 | Cc1ccc(-c2csc(NN=Cc3ccc(CO)o3)n2)cc1 [2g, 4‐(4‐Methylphenyl)‐2‐(2‐((5‐Hydroxymethylfuran‐2‐Yl)methylene)hydrazineyl)thiazole] | 11.053 ± 1.012% | 4.067 ± 0.289% | 36.7 ± 2.56 | 2.847 | 53.3 | 12.9 ± 1.21 | 18.7
8 | OCc1ccc(C=NNc2nc(-c3ccc(Cl)c(Cl)c3)cs2)o1 [2h, 4‐(3,4‐Dichlorophenyl)‐2‐(2‐((5‐Hydroxymethylfuran‐2‐Yl)methylene)hydrazineyl) Thiazole] | 12.106 ± 1.036% | 5.361 ± 0.486% | 26.7 ± 2.04 | 3.257 | 38.9 | 8.21 ± 0.722 | 11.9
9 | OCc1ccc(C=NNc2nc(-c3ccc(F)cc3F)cs2)o1 [2i, 4‐(2,4‐Difluorophenyl)‐2‐(2‐((5‐Hydroxymethylfuran‐2‐Yl)methylene)hydrazineyl) Thiazole] | 31.842% and 31.842 ± 2.785% | 13.309% and 13.309 ± 1.278% | 43.4 ± 3.56 | 6.650 | 63.1 | 6.52 ± 0.428 | 9.49
10 | OCc1ccc(C=NNc2nc(-c3ccccc3)cs2)o1 [2j, 4‐Phenyl‐2‐(2‐((5‐hydroxymethylfuran‐2‐yl)methylene)hydrazineyl)thiazole] | 28.158 ± 2.075% | 9.057 ± 0.834% | 42.5 ± 3.49 | 3.134 | 61.9 | 13.6 ± 1.05 | 19.7
11 | OCc1ccc(C=NNc2nc(-c3ccc(Cl)cc3)cs2)o1 [2k, 4‐(4‐Chlorophenyl)‐2‐(2‐((5‐hydroxymethylfuran‐2‐yl)methylene)hydrazineyl)thiazole] | 11.842 ± 0.982% | 6.470 ± 0.574% | 39.4 ± 3.25 | 4.629 | 57.3 | 8.51 ± 0.684 | 12.4
12 | OCc1ccc(C=NNc2nc(-c3ccc(Cl)cc3Cl)cs2)o1 [2l, 4‐(2,4‐Dichlorophenyl)‐2‐(2‐((5‐Hydroxymethylfuran‐2‐Yl)methylene)hydrazineyl) Thiazole] | 21.053 ± 1.793% | 4.436 ± 0.386% | 42.1 ± 3.79 | 7.345 | 61.3 | 5.74 ± 0.384 | 8.35
13 | O=[N+]([O-])c1cccc(-c2csc(NN=Cc3ccc(CO)o3)n2)c1 [2m, 4‐(3‐Nitrophenyl)‐2‐(2‐((5‐Hydroxymethylfuran‐2‐Yl)methylene)hydrazineyl)thiazole] | 30.789 ± 2.489% | 11.275 ± 1.021% | 59.6 ± 4.82 | 4.001 | 86.6 | 14.9 ± 1.35 | 21.7
14 | Cc1c(C)c2c(c(C)c1O)CCC(C)(C(=O)O)O2 (stereo not drawn) [Trolox, reference compound] | 29.211 ± 2.043% | 13.863 ± 1.023% |  |  |  |  | 
